Results taken from US20190365719A1, “COMBINATION TREATMENTS OF HSP90 INHIBITORS FOR ENHANCING TUMOR IMMUNOGENICITY AND METHODS OF USE THEREOF” (Massachusetts Institute of Technology, priority 2018, published 2019).

Experiments:
[1] = Mouse weights and body condition, KP and KPM mice; assay type: in vivo; settings: four weeks of low dose treatment
Protocol: FIG. 11A is a box plot showing tumor burden analysis in KP and KPM mice treated with vehicle (control) or Hsp90i. FIG. 11B is a graph showing the longitudinal analysis of mouse weights with vehicle or Hsp90i in the drinking water. The mice were treated for up to 4 weeks with vehicle control or a low dose of HSP90i. In FIG. 11B, KP and KPM mice were combined for vehicle and control treatment groups.
(§1) KP and KPM mice were infected intratracheally with Adenovirus expressing Cre recombinase from an SPC promoter at a titer of 2×10^8 plaque forming units per mouse to initiate tumor formation. 8 weeks following tumor initiation, the cohort was randomized and vehicle (control) or Hsp90i (NVP-HSP990) was administered in the drinking water at a dose of 0.5 mg/kg/day for 4 weeks prior to analysis at 12 weeks post tumor induction.

[2] = Plasma HSP90i concentration in mice by LC/MS; assay type: in vivo, C57Bl/6 and NOD-SCID mice; settings: 0.5 mg/kg/day in drinking water, both strains (C57Bl/6 and NOD-SCID)
Protocol: For oral dosing with HSP90i, the average water consumption of the mice was calculated by measuring water bottle weight before and after 72 hours of housing to determine the average consumption per mouse, per day. Across all experiments, C57Cl/6 mice consumed approximately 4 mL every day. Using these water consumption values, and mouse weight, a 4 mg/mL stock solution of NVP-HSP990 (in 100% PEG400) was diluted directly into the drinking water to achieve a target dose of 0.5 mg/kg/day. HSP990 treatment was begun 72 hours prior to implantation of MC38 cells to allow the drug to reach steady state level prior to tumor challenge.
Serum NVP-HSP990 levels were analyzed by sacrificing mice, performing a cardiac puncture, and isolating approximately 500 μL of whole blood. Blood was transferred to EDTA-coated microtubes and placed on ice. After all samples were collected, they were spun at 10,000×g for 15 min. The supernatant plasma was collected and stored at −80° C. until further processing. 2×10 μL aliquots of serum from each animal was extracted with 40 μL of ice cold acetonitrile and shaken for 30 min at 4° C. The acetonitrile solvent was spiked with 10 nM imatinib as an internal standard for mass spectrometry. Following extraction, samples were spun at 20,000×g for 15 min and the de-proteinated supernatant transferred to a clean Eppendorf tube prior to mass spectrometry analysis. […]

MC38 tumors = experiment: Subcutaneous MC38 tumors in immunocompromised NOD-SCID mice; assay type: in vivo; settings: 0.5 mg/kg/day in drinking water
KP lung tumors = experiment: Lung tumor burden in KP mouse model of NSCLC; assay type: in vivo; settings: KP mice, 0.5 mg/kg/day in drinking water for 4 weeks
Text: A genetically engineered mouse model of non-small cell lung cancer (NSCLC) was used. Mice harboring a Cre-recombinase inducible oncogenic Kras, and a floxed p53 allele (KP) develop tumors following intratracheal administration of Cre recombinase. In addition, a hypermutant mouse model of NSCLC (KPM) was used in which mice have a floxed allele of the MutS homolog 2 (Msh2) gene, a critical component of DNA mismatch repair, in addition to the genetic modifications of the KP mouse model. These models enable the interrogation of Hsp90i strategies in a physiologically relevant NSCLC model with and without hypermutation.
as §1
Tumor burden was analyzed histologically on tumor sections stained with hemotoxylin and eosin (H&E) using standard protocols at the Koch Institute Histology Facility. Tumor burden was calculated by dividing the total area of tumor tissue over the total area of normal lung tissue present in each sample.

[3] = tested on: Ctrl and B2m KO MC38 cells; experiment: Viability of Ctrl and B2m KO MC38 cells in culture, dye reduction assay; assay type: cell-based, mouse; settings: 2-day exposure to increasing concentrations
Text: FIGS. 6A-B are graphs showing anti-tumor activity of low-dose HSP90i is dependent on functional MHC Class I expression. Ctrl or B2m KO cells were generated by CRISPR-Cas9 mediated gene editing, and B2m KO cells were confirmed to no longer express MHC-I on the cell surface. FIG. 6A is a line graph showing relative number of viable Ctrl and B2m KO cells measured by standard dye reduction assay following 2-day exposure to increasing concentrations of HSP90i; FIG. 6B is a line graph showing size in mm^3 of Ctrl or B2m KO MC38 tumors in mice treated with vehicle (Veh, solid lines) or 0.5 mg/kg/day HSP90i (dotted lines) over 25 days post implantation.
For CRISPR/Cas9-mediated disruption of B2m, pSpCas9-P2A-GFP plasmid (Addgene #48138) was modified with a control sgRNA sequence ([…]) or an sgRNA targeting B2m ([…]). Log phase MC38 cells were transfected with Ctrl or B2m plasmids using Lipofectamine 2000 (Invitrogen) according to manufacturer's instructions. 24 hours later, single GFP positive cells were sorted into 96-well plates to isolate individual MC38 clones with the desired modification. After 2 weeks, isolated clones were tested by western blot to confirm loss of B2m expression. Ctrl and B2m clones were then passaged through syngeneic mice (C57/B16) to increase the uniformity of tumor establishment and progression in subsequent experiments.

## COc1cccc(-c2cc(F)ccc2[C@H]2Cc3nc(N)nc(C)c3C(=O)N2)n1 [NVP-HSP990]
[1]
  mouse mass or body condition: minimal effects on mouse mass or body condition
[2]
  plasma concentration of HSP90i: ~20 nM
MC38 tumors
  effect on tumor growth: no effect on tumor growth
KP lung tumors
  lung tumor burden versus vehicle: no significant difference
[3]
  sensitivity of Ctrl versus B2m KO MC38 cells in culture: no difference in sensitivity
